Reference: publication PMC6657673, “Synthesis of an α-phosphono-α,α-difluoroacetamide analogue of the diphosphoinositol pentakisphosphate 5-InsP7” (MedChemComm, 2019)

Target: T1, diphosphoinositol pentakisphosphate kinase 2 (PPIP5K2) (Homo sapiens, UniProt O43314)
T1 construct: kinase domain, residues 41–366 (crystal); residues 1–366 (kinase assay)
T1 sequence (O43314 1-366): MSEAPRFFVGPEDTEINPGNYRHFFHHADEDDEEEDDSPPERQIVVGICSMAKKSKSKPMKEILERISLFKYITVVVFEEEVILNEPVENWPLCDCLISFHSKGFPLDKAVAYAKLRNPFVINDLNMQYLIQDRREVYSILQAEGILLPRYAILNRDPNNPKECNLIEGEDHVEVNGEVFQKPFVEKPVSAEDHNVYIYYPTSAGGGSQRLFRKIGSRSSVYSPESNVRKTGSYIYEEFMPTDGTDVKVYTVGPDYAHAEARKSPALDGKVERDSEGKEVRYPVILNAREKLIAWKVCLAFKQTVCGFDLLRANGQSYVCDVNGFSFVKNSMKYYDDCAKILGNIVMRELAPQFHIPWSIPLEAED
Assay: X-ray co-crystal structure (soak); also reverse-kinase inhibition assay (ATP generation from ADP and […]-[PP]2-InsP4)
Type: biochemical

`O=C(N[C@@H]1[C@@H](OP(=O)(O)O)[C@H](OP(=O)(O)O)[C@H](OP(=O)(O)O)[C@H](OP(=O)(O)O)[C@H]1OP(=O)(O)O)C(F)(F)P(=O)(O)O` [compound 1, 5-Deoxy-5-(phosphonodifluoroacetamido)-myo-inositol 1,2,3,4,6-pentakisphosphate] gave an IC50 of 375 nM.
